Data on 19 compounds can be found in PubChem BioAssay (NCI).

Test systems include OVCAR-5 ovarian; HT29 colon; HCT-15 colon; NCI/ADR-RES ovarian; KM12 colon; TK-10 renal; HS 578T breast; SF-295 CNS; MDA-MB-435; HCT-116 colon.
Common to all, as to assay: NCI anticancer screen, dose series, 48 h

Structures are written as SMILES.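 Compound exposure: 48 hours, 5 concentrations, 96-well plates. GI50 = concentration required for 50% inhibition of growth. At the TGI there is no net growth.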

Consider `S=C(S)NCC1CCC(CNC(=S)S)CC1` (stereo not given), for which the TGI in the test with OVCAR-5 ovarian was above 100 µM; in the test with HT29 colon, 42.3 µM; with HCT-15 colon, 65 µM; with NCI/ADR-RES ovarian it was above 100 µM; in the test on KM12 colon it was 42.5 µM; with TK-10 renal, 51.7 µM. Besides, the TGI was above 100 µM in the test with HS 578T breast, above 100 µM with SF-295 CNS, 61.4 µM in the test with MDA-MB-435 and 42.5 µM with HCT-116 colon.

In the case of `Cc1ccc(N=Nc2c(C)c(C#N)c(=S)n(C3OC(CO)C(O)C(O)C3O)c2-c2ccccc2)cc1` (stereo not given), the TGI in the test with OVCAR-5 ovarian was 55.9 µM; with HT29 colon, 89.2 µM; in the test on HCT-15 colon, 63.7 µM; in the test on NCI/ADR-RES ovarian, above 100 µM; with KM12 colon it was 58.9 µM; in the test on TK-10 renal, 67.6 µM. Besides, the TGI was 60.4 µM in the test with HS 578T breast, 69.5 µM in the test on SF-295 CNS, 43.8 µM in the test with MDA-MB-435 and 29 µM with HCT-116 colon.

On to `C[C@]12CC[C@@H]3c4ccc(OC(=O)c5ccccc5)cc4CC[C@H]3[C@@H]1CC[C@@H]2Oc1c2ccccc2nc2ccccc12`, for which the TGI with OVCAR-5 ovarian is above 50 µM; in the test on HT29 colon it was 12.6 µM; in the test on HCT-15 colon, 31.5 µM; in the test with NCI/ADR-RES ovarian it was above 50 µM; in the test with KM12 colon it was 44 µM; in the test on TK-10 renal, above 50 µM. The TGI in the test with HS 578T breast is above 50 µM; in the test with SF-295 CNS, above 50 µM; with MDA-MB-435, 12.9 µM; in the test on HCT-116 colon, 18 µM.

Consider `CC(=O)OCC=C(CCl)CCC(Br)C(C)(C)Br` (mixture of isomers), for which the TGI with OVCAR-5 ovarian, in the test with HT29 colon, in the test with HCT-15 colon, with NCI/ADR-RES ovarian, in the test with KM12 colon and in the test with TK-10 renal was above 10 µM in each case. For the same compound, the TGI in the test on HS 578T breast, in the test with SF-295 CNS, with MDA-MB-435 and with HCT-116 colon was above 10 µM throughout.

Take `C=C(C)C1CC=C(C)C2(C1)OCC(C)(C)C(C)O2` (stereo not given): the TGI with OVCAR-5 ovarian is 38.5 µM; in the test with HT29 colon, 33.2 µM; in the test on HCT-15 colon it was 33.9 µM; with NCI/ADR-RES ovarian, 37.5 µM; with KM12 colon, 32.9 µM; in the test with TK-10 renal, above 100 µM. Also, the TGI in the test on HS 578T breast is above 100 µM; in the test with SF-295 CNS, 48.2 µM; with MDA-MB-435 it was 48 µM; in the test with HCT-116 colon, 31.1 µM.

As for `CC(=Nc1ccncc1)C(C)=Nc1ccncc1`, the TGI in the test on OVCAR-5 ovarian was 31.9 µM; in the test on HT29 colon, 38.2 µM; in the test with HCT-15 colon it was 27.5 µM; in the test on NCI/ADR-RES ovarian it was above 100 µM; with KM12 colon, above 100 µM; with TK-10 renal, above 100 µM. Besides, the TGI in the test on HS 578T breast was 98.9 µM; in the test with SF-295 CNS, above 100 µM; with MDA-MB-435, 97.7 µM; with HCT-116 colon, 83.9 µM.

With `Clc1ccc(N=c2oc3ccccc3cc2-c2nc3ccccc3[nH]2)c(Cl)c1`, the TGI with OVCAR-5 ovarian was above 100 µM; in the test with HT29 colon it was above 100 µM; with HCT-15 colon, above 100 µM; with NCI/ADR-RES ovarian, above 100 µM; with KM12 colon, above 100 µM; in the test with TK-10 renal, 69.9 µM. For the same compound, the TGI in the test with HS 578T breast was 78.3 µM; in the test with SF-295 CNS, above 100 µM; with MDA-MB-435, above 100 µM; in the test with HCT-116 colon, above 100 µM.

Take `NC(N)=NS(=O)(=O)c1ccc(NC(=O)c2ccc3nc4ccccc4c(Nc4ccc(S(N)(=O)=O)cc4)c3c2)cc1`: the TGI with OVCAR-5 ovarian, in the test with HT29 colon, with HCT-15 colon, with NCI/ADR-RES ovarian, in the test with KM12 colon and in the test with TK-10 renal was above 100 µM in each case. The TGI with HS 578T breast, in the test on SF-295 CNS, in the test on MDA-MB-435 and in the test on HCT-116 colon was above 100 µM in each case.

As to `O=c1[nH]c(Nc2cccc(Cl)c2)nc2nc[nH]c12`, the TGI in the test with OVCAR-5 ovarian, in the test with HT29 colon, with HCT-15 colon, in the test on NCI/ADR-RES ovarian, in the test with KM12 colon and with TK-10 renal was above 100 µM in each case. In addition, the TGI in the test with HS 578T breast, in the test with SF-295 CNS, with MDA-MB-435 and in the test with HCT-116 colon was above 100 µM in each case.

With `O=C1c2cccc3cccc(c23)C(=O)N1CCCNOCCONCCCN1C(=O)c2cccc3cccc(c23)C1=O`, the TGI in the test with OVCAR-5 ovarian, in the test on HT29 colon, in the test with HCT-15 colon, in the test on NCI/ADR-RES ovarian, in the test on KM12 colon and in the test on TK-10 renal was above 100 µM each time. Also, the TGI in the test on HS 578T breast, in the test on SF-295 CNS, with MDA-MB-435 and in the test on HCT-116 colon was above 100 µM throughout.

With `c1ccc2c(Cc3nnc4sc(SSc5nn6c(Cc7c[nH]c8ccccc78)nnc6s5)nn34)c[nH]c2c1`, the TGI in the test on OVCAR-5 ovarian was 53.1 µM; in the test with HT29 colon, 44.4 µM; in the test with HCT-15 colon it was 53.6 µM; with NCI/ADR-RES ovarian, 44.4 µM; with KM12 colon, 70.3 µM; in the test on TK-10 renal, above 100 µM. The TGI in the test on HS 578T breast is 56.8 µM; in the test with SF-295 CNS it was 44.1 µM; with MDA-MB-435, 47.7 µM; with HCT-116 colon it was 29.4 µM.

`C[n+]1c2ccccc2c(C(=O)Nc2ccc(S(=O)(=O)N=C(N)N)cc2)c2ccccc21`: the TGI in the test on OVCAR-5 ovarian, in the test with HT29 colon, in the test on HCT-15 colon, in the test on NCI/ADR-RES ovarian, in the test on KM12 colon and with TK-10 renal was above 100 µM in each case. Moreover, the TGI in the test with HS 578T breast, in the test on SF-295 CNS, with MDA-MB-435 and with HCT-116 colon was above 100 µM in each case.

For `Cc1ccc(-c2n[nH]c(=O)[nH]2)cc1[N+](=O)[O-]`, the TGI in the test on OVCAR-5 ovarian, in the test on HT29 colon, with HCT-15 colon, with NCI/ADR-RES ovarian, in the test on KM12 colon and in the test on TK-10 renal was above 100 µM throughout. The TGI in the test with HS 578T breast, with SF-295 CNS, in the test on MDA-MB-435 and in the test on HCT-116 colon was above 100 µM each time.

For `Cc1cc(=O)oc2cc(O)ccc12`, the TGI in the test on OVCAR-5 ovarian, with HT29 colon, with HCT-15 colon, with NCI/ADR-RES ovarian, in the test with KM12 colon and with TK-10 renal was above 100 µM in each case. Also, the TGI in the test on HS 578T breast, with SF-295 CNS, in the test on MDA-MB-435 and in the test with HCT-116 colon was above 100 µM each time.

For the compound `COc1cc(S(=O)(=O)Nc2ccc(C3=NNC(c4ccccc4)C3)cc2)ccc1F` (stereo not given), the GI50 is 66.8 µM in the test with OVCAR-5 ovarian; 59.1 µM in the test on HT29 colon; 49 µM in the test with HCT-15 colon; 36.3 µM in the test on NCI/ADR-RES ovarian; 18 µM with KM12 colon; 13.9 µM in the test on TK-10 renal. For the same compound, the GI50 is 16.7 µM in the test with HS 578T breast, 28.5 µM in the test on SF-295 CNS, 47.2 µM in the test with MDA-MB-435 and 17.3 µM in the test with HCT-116 colon. For the same compound, the TGI in the test with OVCAR-5 ovarian was above 100 µM; in the test on HT29 colon, above 100 µM; in the test with HCT-15 colon, above 100 µM; in the test on NCI/ADR-RES ovarian it was above 100 µM; in the test on KM12 colon, above 100 µM; in the test on TK-10 renal it was 54.7 µM. Also, the TGI was 77.8 µM in the test with HS 578T breast, above 100 µM in the test with SF-295 CNS, above 100 µM in the test on MDA-MB-435 and above 100 µM in the test on HCT-116 colon.

As to `O=S1(=O)c2ccccc2NC(=S)CC1c1ccccc1` (stereo not given), the TGI in the test with OVCAR-5 ovarian, in the test on HT29 colon, with HCT-15 colon, with NCI/ADR-RES ovarian, with KM12 colon and in the test on TK-10 renal was above 100 µM each time. For the same compound, the TGI in the test with HS 578T breast is above 100 µM; in the test with SF-295 CNS, 79.8 µM; in the test with MDA-MB-435, above 100 µM; with HCT-116 colon it was above 100 µM.

In the case of `Oc1ccc(CCc2cc(O)cc(O)c2)cc1`, the TGI in the test with OVCAR-5 ovarian, in the test on HT29 colon, with HCT-15 colon, in the test on NCI/ADR-RES ovarian, with KM12 colon and in the test on TK-10 renal was above 100 µM each time. Moreover, the TGI in the test on HS 578T breast, in the test with SF-295 CNS, with MDA-MB-435 and in the test on HCT-116 colon was above 100 µM throughout.

As for `COC(=O)C1(Cc2ccccc2)Cc2ccccc2C1`, the TGI in the test with OVCAR-5 ovarian was above 100 µM; in the test on HT29 colon, 41.7 µM; in the test with HCT-15 colon it was above 100 µM; with NCI/ADR-RES ovarian, 69.2 µM; in the test on KM12 colon, above 100 µM; in the test on TK-10 renal it was above 100 µM. Also, the TGI with HS 578T breast was above 100 µM; in the test on SF-295 CNS, 99.2 µM; with MDA-MB-435, 41.8 µM; in the test with HCT-116 colon it was 49.8 µM.

With `COc1ccc2nc3cc(Cl)ccc3c(NCCNCCCNC(=O)c3cc(-c4ccccc4)nc4ccccc34)c2c1`, the TGI in the test on OVCAR-5 ovarian, in the test on HT29 colon, in the test on HCT-15 colon, in the test on NCI/ADR-RES ovarian, in the test with KM12 colon and with TK-10 renal was above 100 µM in each case. Moreover, the TGI with HS 578T breast, in the test on SF-295 CNS, with MDA-MB-435 and in the test with HCT-116 colon was above 100 µM throughout.
